PubChem BioAssay (NCI)
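Cells were grown in 96-well plates and exposed to each compound for 48 hours at five concentrations; endpoints were interpolated linearly between bracketing concentrations, or set to the highest concentration if not reached. GI50 is the concentration that inhibits growth by half. TGI marks complete inhibition of growth.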

Assays:
Assay in all cases: NCI tumour cell line growth inhibition, 48 h
[1] = test system: 786-0 renal
[2] = test system: A498 renal
[3] = test system: A549 NSCLC
[4] = test system: ACHN renal
[5] = test system: BT-549 breast
[6] = test system: CAKI-1 renal
[7] = test system: CCRF-CEM leukemia
[8] = test system: COLO 205 colon
[9] = test system: DU-145 prostate
[10] = test system: EKVX NSCLC
[11] = test system: HCC-2998 colon
[12] = test system: HCT-116 colon
[13] = test system: HCT-15 colon
[14] = test system: HL-60(TB) leukemia
[15] = test system: HOP-62 NSCLC
[16] = test system: HOP-92 NSCLC
[17] = test system: HS 578T breast
[18] = test system: HT29 colon
[19] = test system: IGROV1 ovarian
[20] = test system: K-562 leukemia
[21] = test system: KM12 colon
[22] = test system: LOX IMVI melanoma
[23] = test system: M14 melanoma
[24] = test system: MALME-3M melanoma
[25] = test system: MCF7 breast
[26] = test system: MDA-MB-231 breast
[27] = test system: MDA-MB-435
[28] = test system: MOLT-4 leukemia
[29] = test system: NCI-H226 lung
[30] = test system: NCI-H23 lung
[31] = test system: NCI-H460 lung
[32] = test system: NCI-H522 lung
[33] = test system: NCI/ADR-RES ovarian
[34] = test system: OVCAR-3 ovarian
[35] = test system: OVCAR-4 ovarian
[36] = test system: OVCAR-5 ovarian
[37] = test system: OVCAR-8 ovarian
[38] = test system: PC-3 prostate
[39] = test system: RPMI-8226 leukemia
[40] = test system: RXF 393 renal
[41] = test system: SF-268 CNS
[42] = test system: SF-295 CNS
[43] = test system: SF-539 CNS
[44] = test system: SK-MEL-2 melanoma
[45] = test system: SK-MEL-28 melanoma
[46] = test system: SK-MEL-5 melanoma
[47] = test system: SK-OV-3 ovarian
[48] = test system: SN12C renal
[49] = test system: SNB-19 CNS
[50] = test system: SNB-75 CNS
[51] = test system: SR leukemia
[52] = test system: SW-620 colon
[53] = test system: T-47D breast
[54] = test system: TK-10 renal
[55] = test system: U251 CNS
[56] = test system: UACC-257 melanoma
[57] = test system: UACC-62 melanoma
[58] = test system: UO-31 renal

## CN1CCN(Cc2ccc(NC(=O)c3cncc(C#Cc4cnc5ccc(NCCO)nn45)c3)cc2C(F)(F)F)CC1
[1]
  GI50: 853 nM
  TGI: 2030 nM
[2]
  GI50: 385 nM
  TGI: 946 nM
[3]
  GI50: 718 nM
  TGI: 4650 nM
[4]
  GI50: 1700 nM
  TGI: 5860 nM
[5]
  GI50: 824 nM
  TGI: 1620 nM
[6]
  GI50: 764 nM
  TGI: 3470 nM
[7]
  GI50: 31 nM
  TGI: 17800 nM
[8]
  GI50: 111 nM
  TGI: 306 nM
[9]
  GI50: 486 nM
  TGI: 3470 nM
[10]
  GI50: 673 nM
  TGI: 4010 nM
[11]
  GI50: 687 nM
  TGI: 3200 nM
[12]
  GI50: 92.1 nM
  TGI: 675 nM
[13]
  GI50: 1650 nM
  TGI: 6490 nM
[14]
  GI50: 138 nM
  TGI: 609 nM
[15]
  GI50: 324 nM
  TGI: 1420 nM
[16]
  GI50: 19 nM
  TGI: 87.4 nM
[17]
  GI50: 115 nM
  TGI: 863 nM
[18]
  GI50: 188 nM
  TGI: 1430 nM
[19]
  GI50: 239 nM
  TGI: 2440 nM
[20]
  GI50: 5 nM
  TGI: 794 nM
[21]
  GI50: 5 nM
  TGI: 1300 nM
[22]
  GI50: 179 nM
  TGI: 769 nM
[23]
  GI50: 231 nM
  TGI: 864 nM
[24]
  GI50: 135 nM
  TGI: 635 nM
[25]
  GI50: 90.3 nM
  TGI: 787 nM
[26]
  GI50: 79.5 nM
  TGI: 335 nM
[27]
  GI50: 123 nM
  TGI: 919 nM
[28]
  GI50: 141 nM
  TGI: 3860 nM
[29]
  GI50: 75.8 nM
  TGI: 1310 nM
[30]
  GI50: 277 nM
  TGI: 1310 nM
[31]
  GI50: 209 nM
  TGI: 718 nM
[32]
  GI50: 187 nM
  TGI: 940 nM
[33]
  GI50: 30100 nM
  TGI: 50000 nM
[34]
  GI50: 349 nM
  TGI: 2060 nM
[35]
  GI50: 378 nM
  TGI: 2100 nM
[36]
  GI50: 342 nM
  TGI: 4330 nM
[37]
  GI50: 698 nM
  TGI: 4050 nM
[38]
  GI50: 457 nM
  TGI: 3920 nM
[39]
  GI50: 1010 nM
  TGI: 2970 nM
[40]
  GI50: 590 nM
  TGI: 1350 nM
[41]
  GI50: 207 nM
  TGI: 1110 nM
[42]
  GI50: 717 nM
  TGI: 4940 nM
[43]
  GI50: 61.6 nM
  TGI: 596 nM
[44]
  GI50: 131 nM
  TGI: 435 nM
[45]
  GI50: 529 nM
  TGI: 1740 nM
[46]
  GI50: 797 nM
  TGI: 1830 nM
[47]
  GI50: 805 nM
  TGI: 3200 nM
[48]
  GI50: 172 nM
  TGI: 2630 nM
[49]
  GI50: 901 nM
  TGI: 3990 nM
[50]
  GI50: 87.4 nM
  TGI: 414 nM
[51]
  GI50: 58.4 nM
  TGI: 1360 nM
[52]
  GI50: 118 nM
  TGI: 580 nM
[53]
  GI50: 603 nM
  TGI: 4220 nM
[54]
  GI50: 1200 nM
  TGI: 2990 nM
[55]
  GI50: 609 nM
  TGI: 1450 nM
[56]
  GI50: 608 nM
  TGI: 2230 nM
[57]
  GI50: 532 nM
  TGI: 1620 nM
[58]
  GI50: 2000 nM
  TGI: 6880 nM
